Laboratory results from patent US20150225380A1, “Novel Method to Obtain Olmesartan Medoxomil With Reduced Particle Size” (LUPIN LIMITED, priority 2012, published 2015).

Tests used:
[1] = Particle size distribution, Malvern Hydro2000S (A); assay type: physicochemical; conditions: crystals of Example 1, seeded crystallisation from acetone, no milling
Protocol: The particle size distribution of olmesartan medoxomil (I) is measured utilizing: Instrument model: Malvern; Dispersion unit: Hydro2000S (A); Particle refraction index of sample: 1.427; Absorption: 0.1; Dispersant refraction index: 1.468 and Size range: 0.020-2000 μm.

[2] = Minimum ignition energy and powder resistivity of the powder; assay type: physicochemical; conditions: observed by the present inventors; process safety for milling

CCCc1nc(C(C)(C)O)c(C(=O)OCc2oc(=O)oc2C)n1Cc1ccc(-c2ccccc2-c2nnn[nH]2)cc1 [olmesartan medoxomil, 4-(1-hydroxy-1-methylethyl)-2-propyl-1-[[2′-(1H-tetrazol-5-yl) [1, 1′-biphenyl]-4-yl]methyl]-1H-imidazole-5-carboxylic acid (5-methyl-2-oxo-1,3-dioxol-4-yl)methyl ester]
particle size distribution d10 [1]: 0.984 μm | particle size distribution d50 [1]: 8.484 μm | particle size distribution d90 [1]: 18.756 μm | minimum ignition energy [2]: less than 3 mJ | powder resistivity [2]: very high
